# Results as given in ChEMBL document CHEMBL1201862, “PubChem BioAssay data set” (2004).
# Calls of active or inactive are those of the source.
# Assays:
# Cytochrome P450 2C19 = Cytochrome P450 2C19 (Homo sapiens, UniProt P33261); test: Cytochrome panel assay with activity outcomes. Panel member name: p450-cyp2c19 Compounds with AC50 equal or less than 10 uM are considered active; assay type: functional; conditions: read-out: AC50
# Aspartyl aminopeptidase = target: T1, Aspartyl aminopeptidase (Plasmodium falciparum 3D7, UniProt Q8I2J3); test: Counterscreen for inhibitors of M1 and M17 aminopeptidases: QFRET-based biochemical high throughput dose response assay for inhibitors of the Plasmodium falciparum M18 Aspartyl Aminopeptidase (PFM18AAP). [Related PubChem assays: 1619 (Screening assay (M17LAP inhibitors).), 1445 (Screening assay (M1AAP inhibitors).)]
# T1 sequence (Q8I2J3 whole entry): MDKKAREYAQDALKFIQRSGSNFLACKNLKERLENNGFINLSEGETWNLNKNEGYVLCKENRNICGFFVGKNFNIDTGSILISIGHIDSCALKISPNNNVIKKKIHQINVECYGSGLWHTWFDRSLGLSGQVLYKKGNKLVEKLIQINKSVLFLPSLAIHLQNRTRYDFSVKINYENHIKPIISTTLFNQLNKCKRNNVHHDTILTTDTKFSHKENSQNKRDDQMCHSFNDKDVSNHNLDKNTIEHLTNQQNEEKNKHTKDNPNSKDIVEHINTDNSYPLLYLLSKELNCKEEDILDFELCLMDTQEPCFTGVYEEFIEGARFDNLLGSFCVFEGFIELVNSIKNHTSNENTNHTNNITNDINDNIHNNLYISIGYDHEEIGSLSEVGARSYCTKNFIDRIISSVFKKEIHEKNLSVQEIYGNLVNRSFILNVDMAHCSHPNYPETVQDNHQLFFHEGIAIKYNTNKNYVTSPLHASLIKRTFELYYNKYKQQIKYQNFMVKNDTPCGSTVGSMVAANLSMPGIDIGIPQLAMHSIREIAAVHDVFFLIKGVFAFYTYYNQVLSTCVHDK
# Leucine aminopeptidase = target: T2, Leucine aminopeptidase (Plasmodium falciparum 3D7, UniProt Q8IL11); test: P. falciparum M17LAP inhibitors, primary screen, biochemical, fluorogenic H-Leu-NHMec substrate, 1536-well (AID 1619); assay type: functional
# T2 sequence (Q8IL11 whole entry): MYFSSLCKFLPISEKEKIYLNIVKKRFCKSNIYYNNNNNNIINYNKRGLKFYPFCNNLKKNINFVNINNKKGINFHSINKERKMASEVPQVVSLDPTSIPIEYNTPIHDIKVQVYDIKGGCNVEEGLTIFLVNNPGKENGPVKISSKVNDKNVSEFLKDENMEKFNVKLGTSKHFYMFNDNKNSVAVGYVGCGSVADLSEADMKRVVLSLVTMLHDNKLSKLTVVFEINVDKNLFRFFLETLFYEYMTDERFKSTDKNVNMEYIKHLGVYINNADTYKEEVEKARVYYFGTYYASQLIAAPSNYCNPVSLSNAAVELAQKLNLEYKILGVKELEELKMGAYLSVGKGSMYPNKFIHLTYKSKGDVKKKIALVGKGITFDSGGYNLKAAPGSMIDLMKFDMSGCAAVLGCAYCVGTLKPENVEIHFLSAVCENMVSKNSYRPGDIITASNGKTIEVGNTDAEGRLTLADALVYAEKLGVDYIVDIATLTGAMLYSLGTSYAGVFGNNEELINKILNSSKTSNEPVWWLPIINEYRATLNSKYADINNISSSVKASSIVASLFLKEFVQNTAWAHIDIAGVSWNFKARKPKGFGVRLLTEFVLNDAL
# Procathepsin L = Procathepsin L (Homo sapiens, UniProt P07711); test: cathepsin L inhibitors, dose response, counter-screen for M1/M17 aminopeptidase inhibitor project, biochemical, QFRET, 1536-well (AID 2214)
# Cytochrome P450 2C9 = Cytochrome P450 2C9 (Homo sapiens, UniProt P11712)
# [1] = target: T3, Mitochondrial peptide methionine sulfoxide reductase (Bos taurus, UniProt P54149); test: Absorbance-based biochemical high throughput dose response assay for activators of Methionine sulfoxide reductase A (MsrA).; assay type: functional
# T3 sequence (P54149 whole entry): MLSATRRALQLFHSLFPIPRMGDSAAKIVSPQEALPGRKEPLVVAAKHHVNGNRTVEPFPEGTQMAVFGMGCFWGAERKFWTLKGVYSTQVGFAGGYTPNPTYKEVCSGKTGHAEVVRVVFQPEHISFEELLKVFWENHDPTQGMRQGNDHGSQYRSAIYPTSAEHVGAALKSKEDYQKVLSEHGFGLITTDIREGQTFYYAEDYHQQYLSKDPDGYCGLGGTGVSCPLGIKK
# [2] = target: T4, Mannose-6-phosphate isomerase (Homo sapiens, UniProt P34949); test: PMI enzyme inhibitors, confirmation, biochemical, fluorescence intensity (AID 1535)
# T4 sequence (P34949 whole entry): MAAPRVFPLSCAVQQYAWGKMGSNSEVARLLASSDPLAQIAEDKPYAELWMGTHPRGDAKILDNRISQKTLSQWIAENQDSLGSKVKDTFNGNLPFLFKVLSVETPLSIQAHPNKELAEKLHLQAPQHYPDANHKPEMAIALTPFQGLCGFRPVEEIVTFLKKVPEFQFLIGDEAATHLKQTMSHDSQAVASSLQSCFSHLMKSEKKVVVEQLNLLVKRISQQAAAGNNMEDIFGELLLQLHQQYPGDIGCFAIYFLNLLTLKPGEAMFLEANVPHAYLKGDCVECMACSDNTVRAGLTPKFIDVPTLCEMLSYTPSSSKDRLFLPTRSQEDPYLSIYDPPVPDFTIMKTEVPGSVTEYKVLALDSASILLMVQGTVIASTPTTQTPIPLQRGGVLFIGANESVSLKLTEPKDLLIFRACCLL
# Phosphomannomutase 2 = Phosphomannomutase 2 (Homo sapiens, UniProt O15305); test: Counter screen SAR assay for PMM2 inhibitors via a fluorescence intensity assay. [Related pubchem assays (depositor defined):AID1545, AID1574]
# [3] = target: T4, Mannose-6-phosphate isomerase; test: inhibitors of human PMI, primary screen, biochemical, fluorescence intensity, coupled assay (AID 1209)
# [4] = target: 5-hydroxytryptamine receptor 1A (Homo sapiens, UniProt P08908); assay type: functional
# NS3 = NS3 (Hepatitis C virus, UniProt A3EZJ3); test: PubChem AID 2173; set-up: species or system Hepacivirus hominis
# [5] = target: T5, Short transient receptor potential channel 4 (Mus musculus, UniProt Q9QUQ5); test: mouse TRPC4 channel inhibitors, dose response, cell-based, HEK293 TRPC4/mu-opioid, Fluo-4 calcium (AID 434942); assay type: functional;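 further: potency of inhibitors blocking the TRPC4 calcium response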
# T5 sequence (Q9QUQ5 whole entry): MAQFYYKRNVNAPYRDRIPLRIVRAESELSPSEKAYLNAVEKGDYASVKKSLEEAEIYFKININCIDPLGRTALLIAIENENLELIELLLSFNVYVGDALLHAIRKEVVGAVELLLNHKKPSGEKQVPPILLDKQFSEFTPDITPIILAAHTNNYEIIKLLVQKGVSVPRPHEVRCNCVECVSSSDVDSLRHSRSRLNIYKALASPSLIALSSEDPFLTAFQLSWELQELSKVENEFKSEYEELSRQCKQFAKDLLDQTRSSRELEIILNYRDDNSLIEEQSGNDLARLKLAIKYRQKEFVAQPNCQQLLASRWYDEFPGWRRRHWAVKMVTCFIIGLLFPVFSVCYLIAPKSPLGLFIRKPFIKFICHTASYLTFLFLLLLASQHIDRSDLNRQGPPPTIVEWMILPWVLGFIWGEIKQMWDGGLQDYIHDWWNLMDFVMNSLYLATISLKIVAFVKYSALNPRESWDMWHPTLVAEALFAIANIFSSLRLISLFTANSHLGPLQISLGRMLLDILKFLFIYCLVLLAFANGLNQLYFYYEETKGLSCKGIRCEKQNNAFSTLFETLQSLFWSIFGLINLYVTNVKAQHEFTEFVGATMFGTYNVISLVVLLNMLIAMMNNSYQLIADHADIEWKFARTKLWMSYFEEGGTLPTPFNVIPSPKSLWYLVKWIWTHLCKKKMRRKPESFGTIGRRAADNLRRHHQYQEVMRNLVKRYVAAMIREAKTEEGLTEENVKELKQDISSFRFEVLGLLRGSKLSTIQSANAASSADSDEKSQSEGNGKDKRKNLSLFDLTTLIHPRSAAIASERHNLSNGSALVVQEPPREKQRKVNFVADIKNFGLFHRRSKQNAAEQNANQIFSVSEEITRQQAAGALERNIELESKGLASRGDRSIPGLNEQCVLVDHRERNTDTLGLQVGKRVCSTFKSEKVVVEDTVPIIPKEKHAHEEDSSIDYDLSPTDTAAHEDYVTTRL
# [6] = Luminescence Cell-Based/Microorganism Confirmation at Dose of Inhibitors of Trypanosoma cruzi Infection. [Related pubchem assays: 1885, 1968 ]; assay type: functional
# [7] = cytotoxicity toward NIH3T3 fibroblasts, dose response, counter-screen, cell-based, ATP luminescence, mouse fibroblasts (AID 2010); assay type: functional;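 further: cells exposed to compound for about 90 hours before reading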
# [8] = Luminescence Cell-Based Secondary HTS screen to identify cytotoxic compounds of NIH3T3 cells. [Related pubchem assays: 1885, 1968 ]; assay type: functional
# [9] = inhibitors of intracellular T. cruzi replication, confirmation, NIH3T3 host cells, beta-gal luminescence (AID 2044); assay type: functional, cell-based;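 further: intracellular parasites grown in NIH/3T3 mouse fibroblasts as host cells; luminescent beta-galactosidase reporter signal from transgenic T. cruzi replicating inside host cells; inhibitors lower the luminescence signal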
# [10] = inhibitors of Bluetongue virus cytopathic effect, confirmation, arbovirus, BSR cells (AID 1250); assay type: functional;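 further: protection from viral cytopathic effect measured as cell viability by ATP luminescence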
# [11] = M. tuberculosis H37Rv growth inhibitors, H37Rv strain (AID 1626); assay type: functional
# [12] = nonselective inhibitors of cellular cAMP signaling, dose response, counter-screen for MC4R biased antagonist project, cell-based, TR-FRET cAMP detection (AID 602305); assay type: functional;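 further: U2OS cells stimulated with forskolin near its EC80 as the cAMP inducer; potency is for inhibition of forskolin-stimulated cAMP signaling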
# Melanocortin receptor 4 = Melanocortin receptor 4 (Homo sapiens, UniProt P32245); test: MC4R antagonist potency on cAMP, dose response, cell-based, TR-FRET, biased antagonists (AID 602298); assay type: functional;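 further: antagonist potency against agonist-stimulated cAMP production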
# [13] = A High Throughput Confirmatory Assay used to Identify Novel Compounds that Inhibit Mycobacterium Tuberculosis in the absence of Glycerol.; assay type: functional
# Bcl-2-like protein 10 = target: T6, Bcl-2-like protein 10 (Homo sapiens, UniProt Q9HD36); test: Biochemical TR3 FP assay of Bcl-B inhibitor potency, EC50 (AID 1243); assay type: functional
# T6 sequence (Q9HD36 whole entry): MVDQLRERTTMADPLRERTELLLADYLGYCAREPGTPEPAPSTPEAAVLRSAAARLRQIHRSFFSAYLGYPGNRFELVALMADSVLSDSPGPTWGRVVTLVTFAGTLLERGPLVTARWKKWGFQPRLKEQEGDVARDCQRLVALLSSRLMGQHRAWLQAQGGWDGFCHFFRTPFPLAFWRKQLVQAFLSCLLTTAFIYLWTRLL
# Wee1-like protein kinase = Wee1-like protein kinase (Homo sapiens, UniProt P30291); test: Dose Response Cell-based Assay for Inhibitors of Wee1 Degradation. [Related pubchem assays: 1410, 1321 ]; assay type: functional
# [14] = Luminescence Cell-Based Dose Confirmation HTS to Identify Activators of 5'UTR Stem-Loop Driven Alpha-Synuclein mRNA Translation in H4 Neuroglioblastoma Cells. [Related pubchem assays: 1829 (Project Summary), 1814 (Primary HTS)]; assay type: functional
# [15] = target: T3, Mitochondrial peptide methionine sulfoxide reductase; assay type: functional
# [16] = Luminescence Cell-Based Dose Response HTS to Identify Activators of Luciferase Translation or Activity in H4 […] Cells. [Related pubchem assays: 1829 (Project Summary), 1814 (Primary HTS)]; assay type: functional
# [17] = target: G2/mitotic-specific cyclin-B1 (Homo sapiens, UniProt P14635); test: Counterscreen assay for inhibitors of Wee1 degradation: dose response cell-based assay to identify inhibitors of cyclin B degradation. [Related pubchem assays: 1410, 1321 ]; assay type: functional
# H4 = test: Luminescence Cell-Based Dose Response HTS to Identify Activators of 5'UTR Stem-Loop Driven Prion Protein mRNA Translation in H4 Neuroglioblastoma Cells. [Related pubchem assays: 1829 (Project Summary), 1814 (Primary HTS)]; assay type: functional; conditions: Homo sapiens
# Chain of Cytochrome P450 2C19 (P33261 whole entry): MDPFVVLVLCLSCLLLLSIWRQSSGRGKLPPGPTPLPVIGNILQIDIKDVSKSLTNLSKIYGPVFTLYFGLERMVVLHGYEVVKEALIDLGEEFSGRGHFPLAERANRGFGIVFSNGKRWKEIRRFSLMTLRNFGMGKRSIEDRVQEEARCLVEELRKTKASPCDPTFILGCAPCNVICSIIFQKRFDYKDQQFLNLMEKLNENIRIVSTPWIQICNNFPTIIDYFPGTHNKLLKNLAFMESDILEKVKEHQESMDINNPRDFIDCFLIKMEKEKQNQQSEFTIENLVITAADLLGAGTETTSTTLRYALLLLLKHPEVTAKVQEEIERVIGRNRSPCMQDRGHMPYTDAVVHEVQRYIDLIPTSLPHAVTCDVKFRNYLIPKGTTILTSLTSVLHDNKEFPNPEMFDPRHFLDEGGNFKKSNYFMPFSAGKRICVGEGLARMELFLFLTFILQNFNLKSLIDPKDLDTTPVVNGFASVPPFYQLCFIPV
# Chain of Phosphomannomutase 2 (O15305 whole entry): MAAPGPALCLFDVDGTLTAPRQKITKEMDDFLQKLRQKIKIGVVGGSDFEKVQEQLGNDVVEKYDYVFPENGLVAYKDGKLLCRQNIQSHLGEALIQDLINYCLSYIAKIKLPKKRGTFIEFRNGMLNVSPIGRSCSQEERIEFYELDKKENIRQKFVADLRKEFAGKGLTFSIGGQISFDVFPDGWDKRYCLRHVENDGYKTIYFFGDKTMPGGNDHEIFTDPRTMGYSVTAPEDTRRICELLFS
# Chain of 5-hydroxytryptamine receptor 1A (P08908 whole entry): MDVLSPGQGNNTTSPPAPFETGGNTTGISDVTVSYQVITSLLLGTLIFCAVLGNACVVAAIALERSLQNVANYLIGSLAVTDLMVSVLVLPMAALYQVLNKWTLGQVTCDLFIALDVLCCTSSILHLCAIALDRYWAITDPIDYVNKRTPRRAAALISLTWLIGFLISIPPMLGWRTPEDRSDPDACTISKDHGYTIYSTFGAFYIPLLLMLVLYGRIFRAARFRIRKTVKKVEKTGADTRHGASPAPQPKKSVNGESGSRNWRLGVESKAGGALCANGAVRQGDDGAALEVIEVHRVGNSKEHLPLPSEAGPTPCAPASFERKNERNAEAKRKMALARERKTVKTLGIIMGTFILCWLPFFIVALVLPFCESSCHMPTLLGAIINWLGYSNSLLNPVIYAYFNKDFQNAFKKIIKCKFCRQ
# Chain of Wee1-like protein kinase (P30291 whole entry): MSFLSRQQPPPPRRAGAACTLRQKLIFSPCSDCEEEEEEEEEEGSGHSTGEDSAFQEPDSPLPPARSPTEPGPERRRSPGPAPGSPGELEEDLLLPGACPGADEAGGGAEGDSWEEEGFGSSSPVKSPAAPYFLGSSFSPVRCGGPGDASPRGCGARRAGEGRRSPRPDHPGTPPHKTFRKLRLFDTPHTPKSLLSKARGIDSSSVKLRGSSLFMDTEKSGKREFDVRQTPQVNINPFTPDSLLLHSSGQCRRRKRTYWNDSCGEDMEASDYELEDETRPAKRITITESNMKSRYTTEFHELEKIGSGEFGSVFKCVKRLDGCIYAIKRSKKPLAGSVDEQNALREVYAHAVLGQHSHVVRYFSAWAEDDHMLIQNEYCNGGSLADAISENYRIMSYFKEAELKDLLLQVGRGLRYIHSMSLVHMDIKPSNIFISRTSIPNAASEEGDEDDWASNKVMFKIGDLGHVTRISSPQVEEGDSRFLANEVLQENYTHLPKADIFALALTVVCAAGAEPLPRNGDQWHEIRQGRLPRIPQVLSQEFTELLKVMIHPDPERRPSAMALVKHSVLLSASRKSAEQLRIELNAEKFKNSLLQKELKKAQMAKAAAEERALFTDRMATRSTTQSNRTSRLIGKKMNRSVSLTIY
# Chain of NS3 (A3EZJ3 whole entry): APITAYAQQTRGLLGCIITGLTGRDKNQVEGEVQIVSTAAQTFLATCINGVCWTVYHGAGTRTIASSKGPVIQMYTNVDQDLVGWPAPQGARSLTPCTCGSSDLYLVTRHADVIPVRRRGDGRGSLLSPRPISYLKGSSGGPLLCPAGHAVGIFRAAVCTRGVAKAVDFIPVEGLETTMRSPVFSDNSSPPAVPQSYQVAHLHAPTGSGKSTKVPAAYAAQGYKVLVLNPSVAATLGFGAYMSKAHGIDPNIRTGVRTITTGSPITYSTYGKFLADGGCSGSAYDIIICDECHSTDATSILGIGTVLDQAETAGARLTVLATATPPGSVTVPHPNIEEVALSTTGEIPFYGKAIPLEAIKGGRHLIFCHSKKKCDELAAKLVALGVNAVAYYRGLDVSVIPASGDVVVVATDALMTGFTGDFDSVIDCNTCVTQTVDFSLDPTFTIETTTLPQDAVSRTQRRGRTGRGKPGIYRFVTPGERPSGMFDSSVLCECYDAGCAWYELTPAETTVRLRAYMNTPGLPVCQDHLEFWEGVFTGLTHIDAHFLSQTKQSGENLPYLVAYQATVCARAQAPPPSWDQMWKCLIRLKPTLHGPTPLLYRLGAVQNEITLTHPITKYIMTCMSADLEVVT
# Chain of G2/mitotic-specific cyclin-B1 (P14635 whole entry): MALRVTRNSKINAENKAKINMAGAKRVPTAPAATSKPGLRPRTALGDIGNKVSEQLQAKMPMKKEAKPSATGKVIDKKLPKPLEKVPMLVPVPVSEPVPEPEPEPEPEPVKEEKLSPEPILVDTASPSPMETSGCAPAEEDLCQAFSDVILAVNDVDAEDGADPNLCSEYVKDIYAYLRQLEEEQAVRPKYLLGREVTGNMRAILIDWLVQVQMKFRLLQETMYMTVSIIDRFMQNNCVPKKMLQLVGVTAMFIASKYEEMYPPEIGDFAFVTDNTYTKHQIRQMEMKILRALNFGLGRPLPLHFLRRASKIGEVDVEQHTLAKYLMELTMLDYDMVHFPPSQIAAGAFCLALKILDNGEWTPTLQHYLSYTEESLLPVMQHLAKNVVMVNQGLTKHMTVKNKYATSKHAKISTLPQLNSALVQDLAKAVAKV
# Chain of Procathepsin L (P07711 whole entry): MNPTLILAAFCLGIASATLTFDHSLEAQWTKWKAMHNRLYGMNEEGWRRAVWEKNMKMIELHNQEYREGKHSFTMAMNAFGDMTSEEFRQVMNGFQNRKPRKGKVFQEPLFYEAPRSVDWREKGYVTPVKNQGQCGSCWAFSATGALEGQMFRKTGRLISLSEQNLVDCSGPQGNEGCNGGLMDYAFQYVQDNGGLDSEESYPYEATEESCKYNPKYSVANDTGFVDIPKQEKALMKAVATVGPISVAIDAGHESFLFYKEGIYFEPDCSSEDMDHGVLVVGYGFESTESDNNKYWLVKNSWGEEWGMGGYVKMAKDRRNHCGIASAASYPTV
# Chain of Cytochrome P450 2C9 (P11712 whole entry): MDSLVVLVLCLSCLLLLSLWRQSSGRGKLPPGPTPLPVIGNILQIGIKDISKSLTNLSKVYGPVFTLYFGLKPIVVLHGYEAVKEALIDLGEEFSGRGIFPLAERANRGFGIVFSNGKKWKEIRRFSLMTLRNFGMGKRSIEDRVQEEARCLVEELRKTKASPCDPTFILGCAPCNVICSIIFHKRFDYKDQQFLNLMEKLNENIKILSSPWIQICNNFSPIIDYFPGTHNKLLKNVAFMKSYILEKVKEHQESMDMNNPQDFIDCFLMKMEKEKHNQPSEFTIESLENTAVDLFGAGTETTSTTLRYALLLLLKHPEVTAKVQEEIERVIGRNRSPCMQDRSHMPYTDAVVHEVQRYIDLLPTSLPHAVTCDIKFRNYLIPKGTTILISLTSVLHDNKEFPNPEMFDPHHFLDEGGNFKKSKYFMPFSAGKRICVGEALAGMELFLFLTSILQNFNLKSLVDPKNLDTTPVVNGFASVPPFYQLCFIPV
# Chain of Melanocortin receptor 4 (P32245 whole entry): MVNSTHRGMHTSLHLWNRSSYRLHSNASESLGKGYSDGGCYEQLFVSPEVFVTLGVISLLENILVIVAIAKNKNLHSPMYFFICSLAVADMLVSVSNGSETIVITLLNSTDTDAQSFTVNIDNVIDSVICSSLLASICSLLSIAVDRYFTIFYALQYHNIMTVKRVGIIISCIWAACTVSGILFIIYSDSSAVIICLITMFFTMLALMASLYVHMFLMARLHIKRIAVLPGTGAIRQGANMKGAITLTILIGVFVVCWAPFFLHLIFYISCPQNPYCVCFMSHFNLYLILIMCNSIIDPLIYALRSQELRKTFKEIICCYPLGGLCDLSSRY
compound,measurement,setting,value
COc1ccc(NC(=O)CSC2=NC(=O)CC(C)=N2)cc1,AC50,Cytochrome P450 2C19,15.8 µM (inconclusive)
same,IC50,Aspartyl aminopeptidase,> 73.5 µM (not active)
same,IC50,Leucine aminopeptidase,3.09 µM (active)
same,IC50,Procathepsin L,> 59.6 µM (not active)
same,AC50,Cytochrome P450 2C9,25.1 µM (inconclusive)
Sc1n[nH]c(-c2cccc(Br)c2)n1,EC50,[1],> 104 µM (inactive)
same,IC50,[2],6.15 µM (active)
same,IC50,Phosphomannomutase 2,> 100 µM (inactive)
same,IC50,[3],14.5 µM (active)
Cc1cccc(NC(=O)C2CCCN(C(=O)Nc3ccccc3)C2)c1C (centres undefined),EC50,[4],> 50 µM (not active)
COc1ccc(OC)c(C2CC(=O)N3CN(c4ccccc4F)CSC3=C2C#N)c1 (centres undefined),IC50,NS3,6.77 µM (active)
CC(C)Oc1cccc(C(=O)C2CCCN(Cc3cnn(C(C)C)c3)C2)c1 (centres undefined),EC50,[5],2.11 µM (active)
same,EC50,[6],68 nM (active)
same,EC50,cells,39 nM (active)
same,EC50,[7],> 60 µM (not active)
same,EC50,[8],> 195 µM (not active)
same,EC50,[9],< 100 nM (active)
CC(C)CCOc1ccc(/C=C2\CCn3c2nc2cc(C(=O)O)ccc2c3=O)cc1,IC50,[10],32.2 µM (active)
Nc1cc(O)nc(SCC(=O)Nc2ccccc2-c2ccccc2)n1,IC50,[11],> 100 µM (active)
CN1CCN(C(=O)/C=C/c2cn(-c3ccccc3)nc2-c2ccc3c(c2)OCCO3)CC1,IC50,[12],> 64.6 µM (inactive)
same,IC50,Melanocortin receptor 4,> 64.6 µM (inactive)
same,IC50,[13],> 100 µM (active)
O=C(O)C1Nc2c(C(=O)N3CCCC3)cccc2C2C=CCC12 (centres undefined),EC50,Bcl-2-like protein 10,4.95 µM (active)
COc1cccc(C2=CC(c3cccc(OC)c3OC)n3nnnc3N2)c1 (centres undefined),EC50,Wee1-like protein kinase,> 49.7 µM (not active)
same,EC50,[14],26.1 µM (active)
same,IC50,[15],155 µM (inactive)
same,EC50,[16],17 µM (active)
same,EC50,[17],> 49.7 µM (not active)
same,EC50,H4,13.1 µM (active)
